Measurements as given in patent US20250235486A1, “Method of Producing Insulin-Producing Cells” (Monash University, priority 2022, published 2025).

Test system: human pancreatic exocrine cells
Test: qRT-PCR gene expression in ex vivo pancreatic exocrine cells from non-diabetic and type 1 diabetic donors
Type: cell-based
Source text: Islets were purified by intraductal perfusion and digestion of the pancreases with collagenase AF-1 (SERVA/Nordmark, Germany) (Ricordi C et al. Automated method for isolation of human pancreatic islets. Diabetes 37, 413-420 (1988)), followed by purification using Ficoll density gradients (Barbaro B, et al. Improved human pancreatic islet purification with the refined UIC—UB density gradient. Transplantation 84, 1200-1203 (2007)). Purified islets, from low density gradient fractions, and acinar/ductal tissue, from high density fractions, were cultured in Miami Media 1A (Mediatech/Corning 98-021, USA) supplemented with 2.5% human serum albumin (Australian Red Cross, Melbourne, VIC, Australia), in a 37° C., 5% CO2 incubator.
Total RNA from human ex vivo pancreatic cells was isolated using TRIzol (Invitrogen) and RNeasy Kit (QIAGEN) including a DNase treatment. First-strand cDNA synthesis was performed using a high-capacity cDNA Reverse Transcription Kit (Applied Biosystems) according to the manufacturer's instructions. cDNA primers were designed using oligoperfect designer (Thermo Fisher Scientific), as shown in Table 2 and Table 3. Briefly, quantitative RT-PCR analyses were undertaken using the PrecisionFast 2× qPCR Master Mix (Primerdesign) and primers using Applied Biosystems 7500 Fast Real-Time PCR System. Each qPCR reaction contained: 6.5 μl qPCR Master Mix, 0.5 μl of forward and reverse primers, 3.5 μl H2O and 2 μl of previously synthesised cDNA, diluted 1/20. Expression levels of specific genes were tested and normalised to 18s ribosomal RNA housekeeping gene.
All cell incubations were performed in Miami Media 1A (Mediatech/Corning 98-021, USA) supplemented with 2.5% human serum albumin (Australian Red Cross, Melbourne, VIC, Australia), in a cell culture incubator at 37° C. in an atmosphere of 5% CO2 for 48 hr using non-treated 6 well culture plates (Corning).

[1] = 10 mM GSK126 (so in the source), 48 hr
[2] = 10 mM GSK126 (so in the source), 48 hr, non-diabetic and T1D donors

CC[C@H](C)n1cc(C)c2c(C(=O)NCc3c(C)cc(C)[nH]c3=O)cc(-c3ccc(N4CCNCC4)nc3)cc21 [GSK126, N-[(1,2-Dihydro-4,6-dimethyl-2-oxo-3-pyridinyl)methyl]-3-methyl-1-[(1S)-1-methylpropyl]-6-[6-(1-piperazinyl)-3-pyridinyl]-1H-indole-4-carboxamide]
Amy2A (acinar marker) expression [1]: did not significantly alter
Ck19 (ductal marker) expression [1]: did not significantly alter
Ki67 (proliferative marker) expression [1]: increased
Txnip (glucose-sensor) expression [1]: did not significantly alter
Ins gene expression [2]: significant expression
Ngn3 mRNA expression [2]: restored
Pdx1 mRNA expression [2]: restored
Sox9 mRNA expression [2]: restored
MafA gene expression (ex vivo exocrine cells, GSK126): restored
Nkx6.1 gene expression (ex vivo exocrine cells, GSK126): restored
Sox11 gene expression (ex vivo exocrine cells, GSK126): restored
